Holding throughout (test): MIC, broth double dilution
For assay [1], the system named is Candida albicans ATCC 10231. It is filed as cell-based. The conditions noted are these: 96-well plate, 37°C, 16 h, absorbance at 600 nm, mean of three independent experiments. Here is the method: (§1) The standard strain of C. albicans (ATCC 10231), three clinically isolated antibiotic-resistant strains (C. albicans 0065, C. albicans 0063, and C. albicans 6), E. coli (ATCC 8739), and S. aureus (ATCC 6538) were obtained from Kunming Medical University. T. rubrum was purchased from BeNa Culture Collection (BNCC, CAS no. 340195). Different strains of C. albicans, E. coli, and S. aureus were cultured with shaking at 37°C in YM medium and Luria-Bertani (LB) medium. T. rubrum was cultured at 28°C in potato dextrose agar (PDA) medium according to the manufacturer’s instructions.
(§2) According to CLSI protocols, the MIC is determined as a point where there is “zero detectable growth,” The MIC of blapstin against different fungal strains was determined by use of the double dilution method, namely, broth dilution determination. In brief, the different strains were grown in their corresponding media at 28°C or 37°C until they reached the exponential growth phase. Colistin E and fluconazole were used as positive controls. Blapstin was diluted to various concentrations in sterile saline: 100 μL of sterile saline was added to the second well of a sterile 96-well plate, and then 100 μL of blapstin was added to the first and second wells. The solution from the second well was double-diluted with sterile saline until the 11th well, from which 100 μL was removed. In the 12th well, no blapstin was added, and sterile saline was used as a negative control. Afterward, 100 μL of the diluted microbial solution was added to each well, followed by incubation at 37°C for 16 h. To assess the antifungal activity of blapstin against the T. rubrum strain, the spore germination rates were first determined microscopically with a hemocytometer. T. rubrum was diluted with normal saline to 1 × 10^5 CFU/mL and then incubated with various concentrations of blapstin at 28°C for 16 h. The absorbance at 600 nm was measured by a microplate reader (Epoch Etock; Biotek, USA) to estimate the inhibition of bacteria and fungi by blapstin.

Assay [2] relates to Trichophyton rubrum. It is filed as cell-based. The conditions noted are these: 1 × 10^5 CFU/mL, 28°C, 16 h, absorbance at 600 nm, mean of three independent experiments, ND = no bacteriostatic activity. Here is the method:
as §1, §2

Assay [3] relates to C. albicans 0063. The class given is cell-based, Candida albicans. The conditions noted are these: 37°C, 16 h, absorbance at 600 nm, mean of three independent experiments. Here is the method:
as §1, §2

The subject of assay [4] is C. albicans 0065. It is filed as cell-based, Candida albicans. The conditions noted are these: 37°C, 16 h, absorbance at 600 nm, mean of three independent experiments. Here is the method:
as §1, §2

In assay [5] the test system is C. albicans 6. It is filed as cell-based, Candida albicans. The conditions noted are these: 37°C, 16 h, absorbance at 600 nm, mean of three independent experiments. Here is the method:
as §1, §2

Assay [6] has as its system Escherichia coli ATCC 8739. It is filed as cell-based. The conditions noted are these: 96-well plate, 37°C, 16 h, absorbance at 600 nm, mean of three independent experiments, ND = no bacteriostatic activity. Here is the method: as §1, §2
In assay [7] the test system is Staphylococcus aureus ATCC 6538. It is filed as cell-based. The conditions noted are these: 96-well plate, 37°C, 16 h, absorbance at 600 nm, mean of three independent experiments, ND = no bacteriostatic activity. Here is the method: as §1, §2
The mark [8] stands for this setting: clinically isolated antibiotic-resistant strain.

Converted amounts (≈) assume the structure as drawn.

As for `OC(Cn1cncn1)(Cn1cncn1)c1ccc(F)cc1F` [Fluconazole], the MIC in assay [1] (Candida albicans, ATCC10231, standard strain) came to 15 µM (≈ 4.59 µg/mL); in assay [2] it was 12.2 µM (≈ 3.74 µg/mL); in assay [3] (Candida albicans, 0063, clinically isolated antibiotic-resistant strain), 61 µM (≈ 18.7 µg/mL); in assay [4] (Candida albicans, 0065, clinically isolated antibiotic-resistant strain), 70 µM (≈ 21.4 µg/mL); in assay [5] (Candida albicans, 6, clinically isolated antibiotic-resistant strain), 61 µM (≈ 18.7 µg/mL).
For Colistin E, the MIC was 22 µM in assay [1] (standard strain); 3 µM in assay [6]; 81.1 µM in assay [7]; 5.4 µM in assay [3] (setting [8]); 5.4 µM in assay [4] (setting [8]); 1.1 µM in assay [5] (setting [8]).

In general, MIC refers to the least concentration at which growth counts as inhibited. A low value points to inhibition by little substance.

(Values after article PMC10269622, “Blapstin, a Diapause-Specific Peptide-Like Peptide from the Chinese Medicinal Beetle Blaps rhynchopetera, Has Antifungal Function” (Microbiology Spectrum, 2023).)
